According to patent US11021467B2, “Phosphatidylinositol 3-kinase inhibitors” (Gilead Sciences, Inc., priority 2014, dated 2021):
pIC50: −log10 of the molar value.

Experiments:
Assay in all cases: TR-FRET enzymatic activity assay against PI3K isoforms
Type in all cases: biochemical
[1] = target: PI3Kγ (Homo sapiens (Human), UniProt P48736); conditions: 2×Km ATP, 30 minutes at 25° C.
Description: (§1) The compounds of formula (I) were characterized for their enzymatic activity against the PI3K isoforms. […] TR-FRET monitored the formation of 3,4,5-inositol triphosphate molecule that competed with fluorescently labeled PIP3 for binding to the GRP-1 pleckstrin homology domain protein.

[2] = target: PI3Kδ (Homo sapiens (Human), UniProt O00329); conditions: 2×Km ATP, 30 minutes at 25° C.
Sequence of PI3Kδ (O00329 whole entry): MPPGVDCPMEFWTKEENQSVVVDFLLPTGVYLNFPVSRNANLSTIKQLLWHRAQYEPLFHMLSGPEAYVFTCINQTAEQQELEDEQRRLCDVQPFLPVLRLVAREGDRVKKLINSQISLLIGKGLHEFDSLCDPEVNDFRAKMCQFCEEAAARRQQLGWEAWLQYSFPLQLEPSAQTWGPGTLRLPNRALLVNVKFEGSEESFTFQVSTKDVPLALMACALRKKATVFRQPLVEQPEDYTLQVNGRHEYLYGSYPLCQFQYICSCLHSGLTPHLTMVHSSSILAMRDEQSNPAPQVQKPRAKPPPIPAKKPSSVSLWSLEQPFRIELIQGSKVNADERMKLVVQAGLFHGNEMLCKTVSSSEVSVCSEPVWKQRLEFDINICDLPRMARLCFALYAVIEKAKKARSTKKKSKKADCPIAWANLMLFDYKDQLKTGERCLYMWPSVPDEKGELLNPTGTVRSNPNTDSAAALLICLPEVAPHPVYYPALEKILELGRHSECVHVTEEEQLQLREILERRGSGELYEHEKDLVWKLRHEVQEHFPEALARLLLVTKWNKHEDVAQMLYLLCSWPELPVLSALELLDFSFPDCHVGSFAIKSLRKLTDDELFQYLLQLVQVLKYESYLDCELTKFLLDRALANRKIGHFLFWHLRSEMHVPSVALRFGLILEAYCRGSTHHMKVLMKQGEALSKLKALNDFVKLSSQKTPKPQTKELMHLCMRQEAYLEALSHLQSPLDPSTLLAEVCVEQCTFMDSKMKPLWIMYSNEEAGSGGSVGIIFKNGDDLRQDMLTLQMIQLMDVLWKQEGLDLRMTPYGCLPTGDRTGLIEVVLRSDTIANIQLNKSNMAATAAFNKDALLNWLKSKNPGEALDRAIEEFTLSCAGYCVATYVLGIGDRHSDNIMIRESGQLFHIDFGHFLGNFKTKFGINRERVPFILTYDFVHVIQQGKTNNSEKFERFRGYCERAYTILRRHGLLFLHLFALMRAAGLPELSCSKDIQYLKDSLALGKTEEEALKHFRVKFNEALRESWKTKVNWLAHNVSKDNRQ
Sequence of PI3Kδ (P27986 whole entry partner): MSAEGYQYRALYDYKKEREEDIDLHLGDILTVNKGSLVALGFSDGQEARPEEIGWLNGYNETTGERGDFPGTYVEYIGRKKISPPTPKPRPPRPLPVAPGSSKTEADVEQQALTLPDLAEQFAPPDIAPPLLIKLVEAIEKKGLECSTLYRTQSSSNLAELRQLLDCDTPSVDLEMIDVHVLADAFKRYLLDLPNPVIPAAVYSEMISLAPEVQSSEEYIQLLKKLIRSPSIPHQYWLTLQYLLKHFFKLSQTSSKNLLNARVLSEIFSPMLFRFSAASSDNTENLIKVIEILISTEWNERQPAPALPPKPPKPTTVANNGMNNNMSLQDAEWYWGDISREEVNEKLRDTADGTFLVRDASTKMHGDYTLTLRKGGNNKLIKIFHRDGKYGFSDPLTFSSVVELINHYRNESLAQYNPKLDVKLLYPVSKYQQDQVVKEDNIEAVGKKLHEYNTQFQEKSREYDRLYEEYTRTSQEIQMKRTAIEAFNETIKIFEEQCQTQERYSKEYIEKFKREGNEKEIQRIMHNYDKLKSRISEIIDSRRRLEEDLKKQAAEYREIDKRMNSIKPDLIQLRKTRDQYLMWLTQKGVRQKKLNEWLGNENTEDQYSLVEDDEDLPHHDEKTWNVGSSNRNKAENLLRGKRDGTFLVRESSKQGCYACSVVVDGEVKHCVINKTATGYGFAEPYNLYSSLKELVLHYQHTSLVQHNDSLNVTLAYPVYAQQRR
Description: as §1

[3] = target: PI3Kβ (Homo sapiens (Human), UniProt P42338); conditions: PI3Kβ, TR-FRET, 2×Km ATP, 30 minutes at 25° C.
Sequence of PI3Kβ (P42338 whole entry): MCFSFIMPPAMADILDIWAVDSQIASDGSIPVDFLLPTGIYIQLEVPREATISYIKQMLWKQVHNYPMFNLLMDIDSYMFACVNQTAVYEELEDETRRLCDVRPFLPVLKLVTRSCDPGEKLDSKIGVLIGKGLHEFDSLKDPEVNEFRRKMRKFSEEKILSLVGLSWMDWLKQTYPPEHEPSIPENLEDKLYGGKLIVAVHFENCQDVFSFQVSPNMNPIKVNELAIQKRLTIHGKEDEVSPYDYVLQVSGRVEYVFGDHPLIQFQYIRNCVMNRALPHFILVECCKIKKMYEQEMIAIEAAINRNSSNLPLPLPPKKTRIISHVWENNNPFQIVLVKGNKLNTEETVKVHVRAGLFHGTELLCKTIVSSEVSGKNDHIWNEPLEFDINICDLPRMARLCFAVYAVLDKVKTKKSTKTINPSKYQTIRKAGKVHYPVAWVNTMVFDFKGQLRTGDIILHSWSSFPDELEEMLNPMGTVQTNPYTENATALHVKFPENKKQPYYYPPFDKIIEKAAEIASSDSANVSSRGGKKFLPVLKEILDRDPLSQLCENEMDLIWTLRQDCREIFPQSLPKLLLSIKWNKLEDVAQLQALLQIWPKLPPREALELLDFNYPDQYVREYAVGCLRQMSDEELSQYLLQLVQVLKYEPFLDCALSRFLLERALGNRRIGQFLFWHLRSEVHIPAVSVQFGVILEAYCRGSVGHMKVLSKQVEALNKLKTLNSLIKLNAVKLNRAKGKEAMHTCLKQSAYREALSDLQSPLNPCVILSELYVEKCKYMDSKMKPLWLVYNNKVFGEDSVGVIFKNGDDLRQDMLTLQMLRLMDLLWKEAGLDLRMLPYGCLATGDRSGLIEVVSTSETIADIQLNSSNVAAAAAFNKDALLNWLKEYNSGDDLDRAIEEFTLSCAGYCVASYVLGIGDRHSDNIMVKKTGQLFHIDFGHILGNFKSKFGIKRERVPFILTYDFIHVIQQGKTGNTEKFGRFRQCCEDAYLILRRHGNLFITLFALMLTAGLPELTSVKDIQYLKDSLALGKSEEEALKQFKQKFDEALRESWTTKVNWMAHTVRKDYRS
Sequence of PI3Kβ (P27986 whole entry partner): as the sequence (P27986 whole entry partner) above
Description: as §1

Sequence of PI3Kγ (P48736 whole entry, the tested form may be a part, canonical isoform): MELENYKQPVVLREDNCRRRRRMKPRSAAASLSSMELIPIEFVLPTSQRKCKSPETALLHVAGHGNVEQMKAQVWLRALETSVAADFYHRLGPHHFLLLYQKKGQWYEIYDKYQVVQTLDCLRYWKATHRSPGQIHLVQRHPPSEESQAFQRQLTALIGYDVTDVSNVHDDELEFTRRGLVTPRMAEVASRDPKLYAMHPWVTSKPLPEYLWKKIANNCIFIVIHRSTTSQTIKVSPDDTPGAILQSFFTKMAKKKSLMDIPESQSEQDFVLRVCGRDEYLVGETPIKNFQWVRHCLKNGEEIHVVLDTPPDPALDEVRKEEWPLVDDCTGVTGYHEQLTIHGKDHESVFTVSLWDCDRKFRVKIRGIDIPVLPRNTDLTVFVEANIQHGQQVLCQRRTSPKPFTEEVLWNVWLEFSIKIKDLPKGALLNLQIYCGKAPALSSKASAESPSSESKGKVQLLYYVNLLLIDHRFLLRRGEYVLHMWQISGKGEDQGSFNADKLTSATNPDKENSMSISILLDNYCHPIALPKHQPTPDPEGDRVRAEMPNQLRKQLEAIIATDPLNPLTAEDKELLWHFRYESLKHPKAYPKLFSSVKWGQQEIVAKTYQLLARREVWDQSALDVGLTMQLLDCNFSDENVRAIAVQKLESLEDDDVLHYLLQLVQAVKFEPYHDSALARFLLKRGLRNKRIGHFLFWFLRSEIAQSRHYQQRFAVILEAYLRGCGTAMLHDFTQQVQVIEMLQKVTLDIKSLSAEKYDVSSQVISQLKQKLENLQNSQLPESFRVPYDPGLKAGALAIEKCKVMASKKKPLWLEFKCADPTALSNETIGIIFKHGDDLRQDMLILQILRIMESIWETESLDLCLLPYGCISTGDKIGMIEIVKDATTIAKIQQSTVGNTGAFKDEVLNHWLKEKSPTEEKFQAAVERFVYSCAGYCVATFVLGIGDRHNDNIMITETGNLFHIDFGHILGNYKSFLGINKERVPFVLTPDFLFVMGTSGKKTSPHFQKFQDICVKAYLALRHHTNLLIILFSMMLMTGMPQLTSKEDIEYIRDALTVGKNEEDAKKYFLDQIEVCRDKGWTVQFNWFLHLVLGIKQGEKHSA

SMILES	pIC50 [1]	pIC50 [2]	pIC50 [3]
C[C@H](Nc1ncnn2ccnc12)c1nc2cccc(Cl)c2c(=O)n1Cc1cc[nH]n1 [Compound 78, (S)-3-((1H-pyrazol-3-yl)methyl)-5-chloro-2-(1-(imidazo[2,1-f][1,2,4]triazin-4-ylamino)ethyl)quinazolin-4(3H)-one]	5.52	7.31	6.04
C[C@H](Nc1ncnc(N)c1C#N)c1nc2cccc(Cl)c2c(=O)n1[C@H]1C[C@@H](O)C1 [Compound 82, 4-amino-6-(((S)-1-(5-chloro-3-((1S,3R)-3-hydroxycyclobutyl)-4-oxo-3,4-dihydroquinazolin-2-yl)ethyl)amino)pyrimidine-5-carbonitrile]	5.64	8.30	6.82
CC(CCO)n1c([C@H](C)Nc2ncnc(N)c2C#N)nc2cccc(Cl)c2c1=O (stereo partly drawn) [Compound 84, 4-amino-6-(((1S)-1-(5-chloro-3-(4-hydroxybutan-2-yl)-4-oxo-3,4-dihydroquinazolin-2-yl)ethyl)amino)pyrimidine-5-carbonitrile]	5.54	8.40	6.59
C[C@H](Nc1ncnc(N)c1C#N)c1nc2cccc(Cl)c2c(=O)n1[C@H]1CC[C@H](O)CC1 [Compound 85, (S)-4-amino-6-((1-(5-chloro-3-(4-hydroxycyclohexyl)-4-oxo-3,4-dihydroquinazolin-2-yl)ethyl)amino)pyrimidine-5-carbonitrile]	5.92	8.52	7.04
C[C@H](Nc1ncnc(N)c1C#N)c1nc2cccc(Cl)c2c(=O)n1[C@H]1C[C@H](N)C1 [Compound 86, (S)-4-amino-6-((1-(3-(3-aminocyclobutyl)-5-chloro-4-oxo-3,4-dihydroquinazolin-2-yl)ethyl)amino)pyrimidine-5-carbonitrile]	≤ 5.00	7.62	6.21
C[C@H](Nc1ncnc(N)c1C#N)c1nc2cccc(Cl)c2c(=O)n1CC1CCNCC1 [Compound 87, (S)-4-amino-6-((1-(5-chloro-4-oxo-3-(piperidin-4-ylmethyl)-3,4-dihydroquinazolin-2-yl)ethyl)amino)pyrimidine-5-carbonitrile]	≤ 5.00	8.40	6.82
C[C@H](Nc1ncnc(N)c1C#N)c1nc2cccc(Cl)c2c(=O)n1CC1CNCCO1 (stereo partly drawn) [Compound 88, 4-amino-6-(((1S)-1-(5-chloro-3-(morpholin-2-ylmethyl)-4-oxo-3,4-dihydroquinazolin-2-yl)ethyl)amino)pyrimidine-5-carbonitrile]	≤ 5.00	7.38	6.60
C[C@H](Nc1nc(N)nc(N)c1Cl)c1nc2cccc(Cl)c2c(=O)n1[C@H]1C[C@@H](O)C1 [Compound 94, 5-chloro-2-((S)-1-((2,6-diamino-5-chloropyrimidin-4-yl)amino)ethyl)-3-((cis)-3-hydroxycyclobutyl)quinazolin-4(3H)-one]	5.80	7.85	6.72
Nc1nc(N)c(Cl)c(N[C@H](c2nc3c(Cl)ccc(Cl)c3c(=O)n2[C@H]2C[C@@H](O)C2)C2CC2)n1 [Compound 95, 5,8-dichloro-2-((S)-cyclopropyl((2,6-diamino-5-chloropyrimidin-4-yl)amino)methyl)-3-((cis)-3-hydroxycyclobutyl)quinazolin-4(3H)-one]	≤ 5.00	7.80	6.14
N#Cc1c(N)nc(N)nc1N[C@H](c1nc2c(Cl)ccc(Cl)c2c(=O)n1[C@H]1C[C@@H](O)C1)C1CC1 [Compound 96, 2,4-diamino-6-(((S)-cyclopropyl(5,8-dichloro-3-((cis)-3-hydroxycyclobutyl)-4-oxo-3,4-dihydroquinazolin-2-yl)methyl)amino)pyrimidine-5-carbonitrile]	6.02	8.70	8.00
N#Cc1c(N)nc(N)nc1N[C@H](c1nc2c(Cl)cc(F)cc2c(=O)n1[C@H]1C[C@H](O)C1)C1CC1 [Compound 97, 2,4-diamino-6-(((S)-(8-chloro-6-fluoro-3-((trans)-3-hydroxycyclobutyl)-4-oxo-3,4-dihydroquinazolin-2-yl)(cyclopropyl)methyl)amino)pyrimidine-5-carbonitrile]	5.55	8.10	7.24
C[C@H](Nc1nc(N)nc(N)c1C#N)c1nc2c(Cl)cc(F)cc2c(=O)n1[C@H]1C[C@H](O)C1 [Compound 98, 2,4-diamino-6-(((S)-1-(8-chloro-6-fluoro-3-((trans)-3-hydroxycyclobutyl)-4-oxo-3,4-dihydroquinazolin-2-yl)ethyl)amino)pyrimidine-5-carbonitrile]	5.49	7.70	6.48
C[C@H](Nc1nc(N)nc(N)c1C#N)c1nc2c(Cl)cc(F)cc2c(=O)n1[C@H]1C[C@@H](O)C1 [Compound 99, 2,4-diamino-6-(((S)-1-(8-chloro-6-fluoro-3-((cis)-3-hydroxycyclobutyl)-4-oxo-3,4-dihydroquinazolin-2-yl)ethyl)amino)pyrimidine-5-carbonitrile]	5.62	8.05	6.54

Continued, values first:

pIC50 [1]	pIC50 [2]	pIC50 [3]	SMILES
5.64	9.00	7.72	C[C@H](Nc1nc(N)nc(N)c1C#N)c1nc2cccc(Cl)c2c(=O)n1CCC(O)CNC(C)(C)C (stereo partly drawn) [Compound 75, 2,4-diamino-6-(((1S)-1-(3-(4-(tert-butylamino)-3-hydroxybutyl)-5-chloro-4-oxo-3,4-dihydroquinazolin-2-yl)ethyl)amino)pyrimidine-5-carbonitrile]
6.80	8.70	7.34	C[C@H](Nc1nc(N)nc(N)c1C#N)c1nc2cccc(Cl)c2c(=O)n1Cc1cc[nH]n1 [Compound 76, (S)-4-((1-(3-((1H-pyrazol-3-yl)methyl)-5-chloro-4-oxo-3,4-dihydroquinazolin-2-yl)ethyl)amino)-2,6-diaminopyrimidine-5-carbonitrile]
5.15	7.48	6.07	C[C@H](Nc1ncnc(N)c1C#N)c1nc2cccc(Cl)c2c(=O)n1Cc1cc[nH]n1 [Compound 77, (S)-4-((1-(3-((1H-pyrazol-3-yl)methyl)-5-chloro-4-oxo-3,4-dihydroquinazolin-2-yl)ethyl)amino)-6-aminopyrimidine-5-carbonitrile]
6.42	8.70	7.40	C[C@H](Nc1nc(N)nc(N)c1C#N)c1nc2cccc(Cl)c2c(=O)n1Cc1cn[nH]c1 [Compound 79, (S)-4-((1-(3-((1H-pyrazol-4-yl)methyl)-5-chloro-4-oxo-3,4-dihydroquinazolin-2-yl)ethyl)amino)-2,6-diaminopyrimidine-5-carbonitrile]
5.62	7.57	5.96	C[C@H](Nc1nc(N)nc(N)c1C#N)c1nc2cccc(Cl)c2c(=O)n1Cc1ncc[nH]1 [Compound 80, (S)-4-((1-(3-((1H-imidazol-2-yl)methyl)-5-chloro-4-oxo-3,4-dihydroquinazolin-2-yl)ethyl)amino)-2,6-diaminopyrimidine-5-carbonitrile]
6.49	8.30	7.33	C[C@H](Nc1nc(N)nc(N)c1C#N)c1nc2cccc(Cl)c2c(=O)n1Cc1nc[nH]n1 [Compound 81, (S)-4-((1-(3-((1H-1,2,4-triazol-3-yl)methyl)-5-chloro-4-oxo-3,4-dihydroquinazolin-2-yl)ethyl)amino)-2,6-diaminopyrimidine-5-carbonitrile]
5.54	8.22	6.74	C[C@H](Nc1ncnc(N)c1C#N)c1nc2cccc(Cl)c2c(=O)n1CCCO [Compound 83, (S)-4-amino-6-((1-(5-chloro-3-(3-hydroxypropyl)-4-oxo-3,4-dihydroquinazolin-2-yl)ethyl)amino)pyrimidine-5-carbonitrile]
≤ 5.00	8.52	7.27	C[C@H](Nc1ncnc(N)c1C#N)c1nc2cccc(Cl)c2c(=O)n1CC1CCNC1 (stereo partly drawn) [Compound 89, 4-amino-6-(((1S)-1-(5-chloro-4-oxo-3-(pyrrolidin-3-ylmethyl)-3,4-dihydroquinazolin-2-yl)ethyl)amino)pyrimidine-5-carbonitrile]
≤ 5.00	7.43	5.55	C[C@H](Nc1ncnc(N)c1C#N)c1nc2cccc(Cl)c2c(=O)n1CC1CCCN1 (stereo partly drawn) [Compound 90, 4-amino-6-(((1S)-1-(5-chloro-4-oxo-3-(pyrrolidin-2-ylmethyl)-3,4-dihydroquinazolin-2-yl)ethyl)amino)pyrimidine-5-carbonitrile]
≤ 5.00	7.02	5.77	C[C@H](Nc1ncnc(N)c1C#N)c1nc2cccc(Cl)c2c(=O)n1CC1CCCCN1 (stereo partly drawn) [Compound 91, 4-amino-6-(((1S)-1-(5-chloro-4-oxo-3-(piperidin-2-ylmethyl)-3,4-dihydroquinazolin-2-yl)ethyl)amino)pyrimidine-5-carbonitrile]
≤ 5.00	8.15	6.49	C[C@H](Nc1ncnc(N)c1C#N)c1nc2cccc(Cl)c2c(=O)n1CC1CCCNC1 (stereo partly drawn) [Compound 92, 4-amino-6-(((1S)-1-(5-chloro-4-oxo-3-(piperidin-3-ylmethyl)-3,4-dihydroquinazolin-2-yl)ethyl)amino)pyrimidine-5-carbonitrile]
6.80	9.00	8.40	C[C@H](Nc1nc(N)nc(N)c1C#N)c1nc2cccc(Cl)c2c(=O)n1[C@H]1C[C@@H](O)C1 [Compound 93, 2,4-diamino-6-(((S)-1-(5-chloro-3-((cis)-3-hydroxycyclobutyl)-4-oxo-3,4-dihydroquinazolin-2-yl)ethyl)amino)pyrimidine-5-carbonitrile]
